From patent publication US10238637B2, “Modulators of the adenosine A3 receptors” (PALOBIOFARMA, S.L., priority 2015, dated 2019)

How the values were obtained:
[1] = target: T1, human A3 receptors (Homo sapiens, UniProt P0DMS8); assay: Adenosine receptor subtypes competition radioligand binding assay, A3 receptor ([3H]-NECA); conditions: membranes from human A3 receptors transfected to CHO cells, 60 min at 25° C.
T1 construct: purchased Receptor Biology, Inc. (USA); host or cells: CHO cells
T1 sequence (P0DMS8 1-318): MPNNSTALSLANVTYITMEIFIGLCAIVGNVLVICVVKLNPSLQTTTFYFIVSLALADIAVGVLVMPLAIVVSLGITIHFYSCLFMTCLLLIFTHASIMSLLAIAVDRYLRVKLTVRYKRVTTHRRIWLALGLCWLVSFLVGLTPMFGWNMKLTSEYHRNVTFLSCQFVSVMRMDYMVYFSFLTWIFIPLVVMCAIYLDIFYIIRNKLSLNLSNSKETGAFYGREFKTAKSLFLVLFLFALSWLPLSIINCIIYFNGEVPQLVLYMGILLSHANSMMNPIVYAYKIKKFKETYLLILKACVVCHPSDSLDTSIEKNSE
Method: (§1) Adenosine Receptor Subtypes Competition Radioligand Binding Assay
(§2) Human recombinant membranes with adenosine receptors were purchased from Receptor Biology, Inc. (USA).
Competitive assays were carried out by incubation of membranes from human A3 receptors transfected to CHO cells, [^3H]-NECA, buffer (20 mM HEPES (pH 7.4), 100 mM NaCl, 10 mM MgCl2, 2 units/ml adenosine deaminase), and unlabelled ligand in a total volume of 0.2 ml for 60 min at 25° C. R-PIA was used to determine nonspecific binding. It was filtered over Schleicher & Schuell GF/52 (presoaked with 0.5% polyethyleneimine) in a Brandel cell harvester. The unbound radioligand was removed with 3×250 μl of 20 mM HEPES (pH 7.4), 100 mM NaCl, 10 mM MgCl2.
In Table 1, binding constants to adenosine A3 receptor obtained for some examples are shown.

[2] = target: T2, adenosine A1 receptor (Homo sapiens, UniProt P30542); assay: Adenosine receptor subtypes competition radioligand binding assay, A1 receptor; conditions: human recombinant membranes
T2 construct: purchased Receptor Biology, Inc. (USA)
T2 sequence (P30542 1-326): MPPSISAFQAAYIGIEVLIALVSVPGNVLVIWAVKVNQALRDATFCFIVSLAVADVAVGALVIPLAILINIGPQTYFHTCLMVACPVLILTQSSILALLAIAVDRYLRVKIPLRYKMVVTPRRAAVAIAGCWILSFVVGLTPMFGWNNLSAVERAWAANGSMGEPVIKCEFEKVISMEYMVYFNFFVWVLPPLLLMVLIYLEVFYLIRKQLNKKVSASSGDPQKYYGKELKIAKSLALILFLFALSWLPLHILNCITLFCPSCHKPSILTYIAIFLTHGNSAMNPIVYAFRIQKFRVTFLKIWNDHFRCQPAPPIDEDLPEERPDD
Description: as §1, §2

[3] = system: ischemia induced renal failure; conditions: rats, ischemia induced with micro aneurysm clips after pretreatment; cited from earlier work
[4] = system: intestinal inflammation and spontaneous colitis; conditions: mice; cited from earlier work
[5] = system: experimental autoimmune uveitis; conditions: experimental autoimmune uveitis model; cited from earlier work
[6] = system: rheumatoid arthritis; conditions: RA patients, oral administration twice daily for 12 weeks; cited from earlier work

Structure (SMILES): COc1ccc(-c2nc(NC(=O)c3ccc(C(=O)O)s3)sc2C#N)cc1 [Example 8, 5-(5-cyano-4-(4-methoxyphenyl)thiazol-2-ylcarbamoyl)thiophene-2-carboxylic Acid]
- Ki [1]: 23 nM
- Ki [2]: > 1000 nM

Structure (SMILES): COc1ccc(-c2nc(NC(=O)c3ccc(C(=O)O)s3)sc2Cl)cc1 [Example 44, 5-(5-chloro-4-(4-methoxyphenyl)thiazol-2-ylcarbamoyl)thiophene-2-carboxylic Acid]
- Ki [1]: 24 nM
- Ki [2]: > 1000 nM

Structure (SMILES): N#Cc1sc(NC(=O)c2ccc(C(=O)O)s2)nc1-c1ccc(F)cc1 [Example 13, 5-(5-cyano-4-(4-fluorophenyl)thiazol-2-ylcarbamoyl)thiophene-2-carboxylic Acid]
- Ki [1]: 66 nM
- Ki [2]: 131 nM

Structure (SMILES): N#Cc1sc(NC(=O)c2ccc(C(=O)O)s2)nc1-c1cc(Cl)cs1 [Example 26, 5-((4-(4-chlorothiophen-2-yl)-5-cyanothiazol-2-yl)carbamoyl)thiophene-2-carboxylic Acid]
- Ki [1]: 12 nM

Structure (SMILES): N#Cc1sc(NC(=O)c2ccc(C(=O)O)s2)nc1-c1ccccc1F [Example 15, 5-(5-cyano-4-(2-fluorophenyl)thiazol-2-ylcarbamoyl)thiophene-2-carboxylic Acid]
- Ki [1]: 99 nM
- Ki [2]: > 500 nM

Structure (SMILES): N#Cc1sc(NC(=O)c2ccc(C(=O)O)s2)nc1-c1cccs1 [Example 25, 5-((5-cyano-4-(thiophen-2-yl)thiazol-2-yl)carbamoyl)thiophene-2-carboxylic Acid]
- Ki [1]: 36 nM

Structure (SMILES): N#Cc1sc(NC(=O)c2ccc(C(=O)O)s2)nc1-c1ccccc1 [Example 22, 5-(5-cyano-4-phenylthiazol-2-ylcarbamoyl)thiophene-2-carboxylic Acid]
- Ki [1]: 66 nM
- Ki [2]: 87 nM

Structure (SMILES): COc1ccc(-c2nc(NC(=O)c3cccc(C(=O)O)c3)sc2C#N)cn1 [Example 37, 3-(5-cyano-4-(6-methoxypyridin-3-yl)thiazol-2-ylcarbamoyl)benzoic Acid]
- Ki [1]: 99 nM
- Ki [2]: > 1000 nM

Structure (SMILES): CNC(=O)[C@H]1O[C@@H](n2cnc3c(NCc4cccc(I)c4)ncnc32)[C@H](O)[C@@H]1O [IB-MECA, N6-(3-iodobenzyl)-adenosine-5′-N-methyluronamide]
- Effect of pretreatment on ischemia induced renal failure [3]: harmful
- Effect on intestinal inflammation and spontaneous colitis [4]: ameliorate intestinal inflammation and spontaneous colitis
- Effect on clinical and pathological manifestations of uveitis [5]: inhibited the clinical and pathological manifestations of uveitis
- Effect on disease signs and symptoms [6]: improvement of disease signs and symptoms
- Safety and tolerability [6]: safe, well tolerated

Structure (SMILES): O=C(O)c1ccc(C(=O)Nc2nc(-c3ccccc3)c(Cl)s2)s1 [Example 38, 5-(5-chloro-4-phenylthiazole-2-ylcarbamoyl)thiophene-2-carboxylic Acid]
- Ki [1]: 21 nM
- Ki [2]: 34 nM

Structure (SMILES): COc1ccc(-c2nc(NC(=O)c3cccc(C(=O)O)c3)sc2C#N)cc1 [Example 6, 3-(5-cyano-4-(4-methoxyphenyl)thiazol-2-ylcarbamoyl)benzoic Acid]
- Ki [1]: 10 nM
- Ki [2]: > 1000 nM

Structure (SMILES): O=C(O)c1ccc(C(=O)Nc2nc(-c3ccccc3)c(F)s2)s1 [Example 41, 5-(5-fluoro-4-phenylthiazol-2-ylcarbamoyl)thiophene-2-carboxylic Acid]
- Ki [1]: 10 nM
- Ki [2]: 64 nM
